Source: the NIST ThermoML archive (doi:10.1021/acs.jced.8b01048)
± gives the expanded uncertainty stated by the source.

Assays:
[1] = xn = mol fraction of the nth substance listed; details: 100 kPa, Liquid, Vibrating tube method
[2] = 100 kPa, Liquid, Vibrating tube method

C[S+](C)[O-] [dimethyl sulfoxide] + O
[1], x1 = 0.998
Details | mass density [kg/m3]
293.15 K | 1100.2 ± 1.1
303.15 K | 1090.2 ± 1.1
313.15 K | 1080.4 ± 1
323.15 K | 1070.2 ± 1
333.15 K | 1060.3 ± 1
343.15 K | 1050.2 ± 1
353.15 K | 1040.2 ± 1
363.15 K | 1029.9 ± 1
373.15 K | 1019.8 ± 0.9

C[S+](C)[O-] [dimethyl sulfoxide]
[2]
Details | mass density [kg/m3]
293.15 K | 1100.2 ± 1.1
303.15 K | 1090.2 ± 1.1
313.15 K | 1080.4 ± 1
323.15 K | 1070.2 ± 1
333.15 K | 1060.3 ± 1
343.15 K | 1050.2 ± 1
353.15 K | 1040.2 ± 1
363.15 K | 1029.9 ± 1
373.15 K | 1019.8 ± 0.9

C[S+](C)[O-] [dimethyl sulfoxide] + CC(=O)[O-].CCn1cc[n+](C)c1
[1], x1 = 1
Details | mass density [kg/m3]
293.15 K | 1100.2 ± 0.5
303.15 K | 1090.2 ± 0.5
313.15 K | 1080.4 ± 0.5
323.15 K | 1070.2 ± 0.5
333.15 K | 1060.3 ± 0.5
343.15 K | 1050.2 ± 0.5
353.15 K | 1040.2 ± 0.5
363.15 K | 1029.9 ± 0.5
373.15 K | 1019.8 ± 0.5

CC(=O)[O-].CCn1cc[n+](C)c1 [1-ethyl-3-methylimidazolium acetate] + O
[1], x2 = 0.018
Details | mass density [kg/m3]
293.15 K | 1101.7 ± 0.5
303.15 K | 1095.6 ± 0.5
313.15 K | 1089.6 ± 0.5
323.15 K | 1083.7 ± 0.5
333.15 K | 1077.7 ± 0.5
343.15 K | 1071.8 ± 0.5
353.15 K | 1065.9 ± 0.5
363.15 K | 1060 ± 0.5
373.15 K | 1054.2 ± 0.5

CC(=O)[O-].C[N+](C)(C)CCO [choline acetate] + C[S+](C)[O-]
mass density [kg/m3], [1]
Details | 293.15 K | 303.15 K | 313.15 K | 323.15 K | 333.15 K | 343.15 K | 353.15 K | 363.15 K | 373.15 K
x2 = 0.503 | – | – | – | – | – | 1067.3 ± 0.5 | 1060.8 ± 0.5 | 1054.6 ± 0.5 | 1048.4 ± 0.5
x2 = 0.598 | – | – | – | – | 1073.6 ± 0.5 | 1066.7 ± 0.5 | 1059.8 ± 0.5 | 1053 ± 0.5 | 1046.4 ± 0.5
x2 = 0.701 | – | – | – | 1079.6 ± 0.5 | 1072.3 ± 0.5 | 1065 ± 0.5 | 1057.6 ± 0.5 | 1050.4 ± 0.5 | 1043.3 ± 0.5
x2 = 0.799 | – | – | 1086 ± 0.5 | 1077.9 ± 0.5 | 1070 ± 0.5 | 1061.8 ± 0.5 | 1053.8 ± 0.5 | 1045.6 ± 0.5 | 1037.6 ± 0.5
x2 = 0.899 | 1102.7 ± 0.5 | 1093.9 ± 0.5 | 1085.1 ± 0.5 | 1076.3 ± 0.5 | 1067.4 ± 0.5 | 1058.6 ± 0.5 | 1049.8 ± 0.5 | 1040.9 ± 0.5 | 1032.3 ± 0.5

CC(=O)[O-].CCn1cc[n+](C)c1 [1-ethyl-3-methylimidazolium acetate]
[2]
Details | mass density [kg/m3]
293.15 K | 1101.7 ± 0.5
303.15 K | 1095.6 ± 0.5
313.15 K | 1089.6 ± 0.5
323.15 K | 1083.7 ± 0.5
333.15 K | 1077.7 ± 0.5
343.15 K | 1071.8 ± 0.5
353.15 K | 1065.9 ± 0.5
363.15 K | 1060 ± 0.5
373.15 K | 1054.2 ± 0.5
